How the values were obtained:
[1] = system: NOMO1; test: AUC of viability dose-response curve (% viability x log10 dose units); higher = less sensitive; settings: 48 h
Summary of the method: (§1)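 Viability of medium-adapted leukemia cells was measured by CellTiter-Glo One luminescence after 48 h at 37°C with library compounds in DMSO. Doses were 11 threefold steps from 47 μM to 0.79 nM, in 1536-well plates at 500 or 1000 cells/well. Signals were normalised per plate to DMSO and cell-free wells and fitted with a four-parameter log-logistic model on log10 dose. Area under the curve was integrated by trapezoidal rule, with curves exceeding full viability scaled and failed quality-control curves removed.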

[2] = system: P12-Ichikawa; test: as above; settings: 48 h
Summary of the method: as §1

[3] = system: SEM cells; test: as above; settings: 48 h
Summary of the method: as §1

[4] = system: SEM cells; test: cell viability relative to DMSO control; higher = less cytotoxic; settings: 48 h
Summary of the method: (§2)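 Viability, reported as a per-plate percentage of DMSO wells with cell-free wells as background, came from CellTiter-Glo One luminescence. Reading took place after 48 h at 37°C. Before that, NOMO1 or SEM (500 cells/well) or P12-Ichikawa (1000 cells/well) leukemia cells, adapted for at least four passages in each medium, were seeded in 1536-well plates (5 μl) and pin-dosed with library compounds in DMSO, 47 μM to 0.79 nM over 11 threefold points.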

[5] = system: NOMO1; test: as above; settings: HPLM + 10% dialyzed FBS, 48 h
Summary of the method: as §2

[6] = RPMI 5 mM glucose + 10% dialyzed FBS
[7] = RPMI 5 mM glucose + 10% dialyzed FBS, 0.000781 µM
[8] = RPMI 5 mM glucose + 10% dialyzed FBS, 0.00234 µM
[9] = RPMI 5 mM glucose + 10% dialyzed FBS, 0.00702 µM
[10] = RPMI 5 mM glucose + 10% dialyzed FBS, 0.0211 µM
[11] = RPMI 5 mM glucose + 10% dialyzed FBS, 0.0632 µM
[12] = RPMI 5 mM glucose + 10% dialyzed FBS, 0.19 µM
[13] = RPMI 5 mM glucose + 10% dialyzed FBS, 0.569 µM
[14] = RPMI 5 mM glucose + 10% dialyzed FBS, 1.71 µM
[15] = RPMI 5 mM glucose + 10% dialyzed FBS, 5.12 µM
[16] = RPMI 5 mM glucose + 10% dialyzed FBS, 15.4 µM
[17] = RPMI 5 mM glucose + 10% dialyzed FBS, 46.1 µM
[18] = RPMI 5 mM glucose + 10% FBS, 0.000781 µM
[19] = RPMI 5 mM glucose + 10% FBS, 0.00234 µM
[20] = RPMI 5 mM glucose + 10% FBS, 0.00702 µM
[21] = RPMI 5 mM glucose + 10% FBS, 0.0211 µM
[22] = RPMI 5 mM glucose + 10% FBS, 0.0632 µM
[23] = RPMI 5 mM glucose + 10% FBS, 0.19 µM
[24] = RPMI 5 mM glucose + 10% FBS, 0.569 µM
[25] = RPMI 5 mM glucose + 10% FBS, 1.71 µM
[26] = RPMI 5 mM glucose + 10% FBS, 5.12 µM
[27] = RPMI 5 mM glucose + 10% FBS, 15.4 µM
[28] = RPMI 5 mM glucose + 10% FBS, 46.1 µM
[29] = HPLM + 10% dialyzed FBS, 0.000781 µM
[30] = HPLM + 10% dialyzed FBS, 0.00234 µM
[31] = HPLM + 10% dialyzed FBS, 0.00702 µM
[32] = HPLM + 10% dialyzed FBS, 0.0211 µM
[33] = HPLM + 10% dialyzed FBS, 0.0632 µM
[34] = HPLM + 10% dialyzed FBS, 0.19 µM
[35] = HPLM + 10% dialyzed FBS, 0.569 µM
[36] = HPLM + 10% dialyzed FBS, 1.71 µM
[37] = HPLM + 10% dialyzed FBS, 5.12 µM
[38] = HPLM + 10% dialyzed FBS, 15.4 µM
[39] = HPLM + 10% dialyzed FBS, 46.1 µM

Structure (SMILES) | AUC of viability dose-response curve ([1]; HPLM + 10% dialyzed FBS) | AUC of viability dose-response curve ([1]; RPMI 5 mM glucose + 10% FBS) | AUC of viability dose-response curve [1, 6] | AUC of viability dose-response curve ([2]; HPLM + 10% dialyzed FBS) | AUC of viability dose-response curve ([2]; RPMI 5 mM glucose + 10% FBS) | AUC of viability dose-response curve [2, 6] | AUC of viability dose-response curve ([3]; HPLM + 10% dialyzed FBS) | AUC of viability dose-response curve ([3]; RPMI 5 mM glucose + 10% FBS) | AUC of viability dose-response curve [3, 6] | cell viability [4, 7] | cell viability [4, 8] | cell viability [4, 9] | cell viability [4, 10] | cell viability [4, 11] | cell viability [4, 12] | cell viability [4, 13] | cell viability [4, 14] | cell viability [4, 15] | cell viability [4, 16] | cell viability [4, 17] | also measured
O=C1NC(=O)/C(=C/c2ccc3c(c2)OC(F)(F)O3)S1 | 465 | 446 | 457 | 462 | 463 | 440 | 464 | 466 | 466 |  |  |  |  |  |  |  |  |  |  |  | 
COc1cccc2c1C(=O)c1c(O)c3c(c(O)c1C2=O)C[C@@](O)(C(=O)CO)C[C@@H]3O[C@H]1C[C@H](N)[C@@H](O)[C@H](C)O1 | 369 | 362 | 365 | 364 | 359 | 363 | 359 | 309 | 327 |  |  |  |  |  |  |  |  |  |  |  | 
COC1=CC=C(C=C1)C/2=C(OC3O[C@@H](C)[C@H](O)[C@@H](O)[C@H]3O)/C(=O)C4=C(O2)C(=C(OC5O[C@H](CO)[C@@H](O)[C@H](O)[C@H]5O)C=C4O)CC=C(C)C (stereo not given in full) | 445 | 457 | 462 | 456 | 459 | 469 | 439 | 420 | 435 | 127% | 123% | 117% | 118% | 126% | 129% | 124% | 114% | 115% | 80.7% | 14.7% | 
CC(C)c1cccc(C(C)C)c1O | 463 | 453 | 455 | 453 | 463 | 447 | 453 | 459 | 469 |  |  |  |  |  |  |  |  |  |  |  | 
O=C(Nc1nc2cccc(-c3ccc(CN4CC[S+](=O)([O-])CC4)cc3)n2n1)C1CC1 | 440 | 449 | 444 | 455 | 454 | 455 | 441 | 446 | 432 | 120% | 125% | 109% | 126% | 130% | 152% | 133% | 124% | 90.1% | 94.6% | 31.1% | cell viability [4, 18]: 111%; cell viability [4, 19]: 133%; cell viability [4, 20]: 120%; cell viability [4, 21]: 124%; cell viability [4, 22]: 136%; cell viability [4, 23]: 146%; cell viability [4, 24]: 130%; cell viability [4, 25]: 121%; cell viability [4, 26]: 103%; cell viability [4, 27]: 107%; cell viability [4, 28]: 21.3%
CN1CCN(c2ncc(-c3cc(Cl)cc(Cl)c3Cl)c(N)n2)CC1 | 337 | 305 | 341 |  |  |  | 467 | 459 | 450 | 106% | 118% | 117% | 133% | 139% | 135% | 150% | 141% | 144% | 141% | 132% | cell viability [4, 18]: 111%; cell viability [4, 19]: 117%; cell viability [4, 20]: 133%; cell viability [4, 21]: 137%; cell viability [4, 22]: 135%; cell viability [4, 23]: 135%; cell viability [4, 24]: 126%; cell viability [4, 25]: 135%; cell viability [4, 26]: 155%; cell viability [4, 27]: 138%; cell viability [4, 28]: 132%
CC1Cc2ccccc2N1NC(=O)c1ccc(Cl)c([S+](N)(=O)[O-])c1 (stereo not given) | 467 | 445 | 434 | 463 | 473 | 452 | 474 | 426 | 472 | 107% | 109% | 117% | 106% | 102% | 134% | 100% | 97% | 113% | 111% | 107% | cell viability [4, 29]: 111%; cell viability [4, 30]: 108%; cell viability [4, 31]: 104%; cell viability [4, 32]: 106%; cell viability [4, 33]: 94.3%; cell viability [4, 34]: 113%; cell viability [4, 35]: 128%; cell viability [4, 36]: 103%; cell viability [4, 37]: 112%; cell viability [4, 38]: 116%; cell viability [4, 39]: 97.9%
OC1=CC(=C(C=C1)\C2=C(O)\C(=O)C3=C(O2)C=C(O)C=C3O)O | 450 | 433 | 467 | 442 | 444 | 443 | 461 | 459 | 465 |  |  |  |  |  |  |  |  |  |  |  | cell viability ([5]; 0.000781 µM): 121%; cell viability ([5]; 0.00234 µM): 118%; cell viability ([5]; 0.00702 µM): 138%; cell viability ([5]; 0.0211 µM): 136%; cell viability ([5]; 0.0632 µM): 120%; cell viability ([5]; 0.19 µM): 137%; cell viability ([5]; 0.569 µM): 132%; cell viability ([5]; 1.71 µM): 119%; cell viability ([5]; 5.12 µM): 112%; cell viability ([5]; 15.4 µM): 106%; cell viability ([5]; 46.1 µM): 71.5%
CN(C)CC(=O)N1CCC(CC1)C2=CC=C(NC(=O)C3=NC(=C[NH]3)C#N)C(=C2)\C4=C\CCCC4 | 458 | 454 | 456 | 467 | 463 | 443 | 359 | 358 | 348 |  |  |  |  |  |  |  |  |  |  |  | 
CCOc1cc(N2CCC(O)CC2)ccc1Nc1ncc2c(n1)N(C)c1ccccc1C(=O)N2C | 321 | 301 | 318 | 350 | 352 | 370 | 441 | 421 | 428 |  |  |  |  |  |  |  |  |  |  |  | cell viability [4, 29]: 106%; cell viability [4, 30]: 117%; cell viability [4, 31]: 133%; cell viability [4, 32]: 126%; cell viability [4, 33]: 130%; cell viability [4, 34]: 133%; cell viability [4, 35]: 139%; cell viability [4, 36]: 146%; cell viability [4, 37]: 119%; cell viability [4, 38]: 94.9%; cell viability [4, 39]: 7.22%
O=C(O)/C=C/c1ccc(Cn2ccnc2)cc1 | 469 | 438 | 460 | 438 | 436 | 464 | 466 | 471 | 473 |  |  |  |  |  |  |  |  |  |  |  | 

— the supplement of paper PMC11451515
